Experimental data: PubChem BioAssay (NCI)
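GI50 = concentration required for 50% inhibition of growth. TGI is the concentration that stops growth completely.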

Assays:
Experiment in all cases: NCI tumour cell line growth inhibition, 384-well format
RXF 393 renal = system: RXF 393 renal
786-0 renal = system: 786-0 renal
NCI-H460 NSCLC = system: NCI-H460 NSCLC
HOP-62 NSCLC = system: HOP-62 NSCLC
MDA-MB-468 breast = system: MDA-MB-468 breast
U251 glioblastoma = system: U251 glioblastoma
K-562 leukemia = system: K-562 leukemia
HCC-2998 colon = system: HCC-2998 colon
MOLT-4 leukemia = system: MOLT-4 leukemia
MDA-MB-435 melanoma = system: MDA-MB-435 melanoma
SK-MEL-5 melanoma = system: SK-MEL-5 melanoma
M14 melanoma = system: M14 melanoma
NCI/ADR-RES ovarian = system: NCI/ADR-RES ovarian
LOX IMVI melanoma = system: LOX IMVI melanoma
UACC-257 melanoma = system: UACC-257 melanoma
NCI-H322M lung = system: NCI-H322M lung
HL-60(TB) leukemia = system: HL-60(TB) leukemia
UO-31 renal = system: UO-31 renal
OVCAR-8 ovarian = system: OVCAR-8 ovarian
MDA-MB-231 breast = system: MDA-MB-231 breast
SN12C renal = system: SN12C renal
IGROV1 ovarian = system: IGROV1 ovarian
MCF7 breast = system: MCF7 breast
SF-268 CNS = system: SF-268 CNS
CAKI-1 renal = system: CAKI-1 renal
ACHN renal = system: ACHN renal
SK-MEL-28 melanoma = system: SK-MEL-28 melanoma
SF-295 CNS = system: SF-295 CNS
KM12 colon = system: KM12 colon
NCI-H226 lung = system: NCI-H226 lung
HCT-15 colon = system: HCT-15 colon
SF-539 CNS = system: SF-539 CNS
SW-620 colon = system: SW-620 colon
NCI-H522 lung = system: NCI-H522 lung
EKVX NSCLC = system: EKVX NSCLC
SR leukemia = system: SR leukemia
HOP-92 NSCLC = system: HOP-92 NSCLC
NCI-H23 lung = system: NCI-H23 lung
CCRF-CEM leukemia = system: CCRF-CEM leukemia
OVCAR-5 ovarian = system: OVCAR-5 ovarian
SNB-75 CNS = system: SNB-75 CNS
BT-549 breast = system: BT-549 breast
HS 578T breast = system: HS 578T breast
TK-10 renal = system: TK-10 renal
A549 NSCLC = system: A549 NSCLC
OVCAR-3 ovarian = system: OVCAR-3 ovarian
T-47D breast = system: T-47D breast
PC-3 prostate = system: PC-3 prostate
OVCAR-4 ovarian = system: OVCAR-4 ovarian
HT29 colon = system: HT29 colon
A498 renal = system: A498 renal
COLO 205 colon = system: COLO 205 colon
DU-145 prostate = system: DU-145 prostate
SNB-19 CNS = system: SNB-19 CNS
SK-OV-3 ovarian = system: SK-OV-3 ovarian
UACC-62 melanoma = system: UACC-62 melanoma
MALME-3M melanoma = system: MALME-3M melanoma
RPMI-8226 leukemia = system: RPMI-8226 leukemia

For `Cc1cc(N2CCOCC2)cc2[nH]c(-c3c(NC[C@@H](O)c4cccc(Cl)c4)cc[nH]c3=O)nc12`, the GI50 (RXF 393 renal) was 1440 nM, the TGI (RXF 393 renal) was 2910 nM and the GI50 ([…]-0 renal) was 1830 nM. The TGI (786-0 renal) was 4360 nM, the GI50 (NCI-H460 NSCLC) was 607 nM and the TGI (NCI-H460 NSCLC) was 2760 nM. The GI50 (HOP-62 NSCLC) was 2480 nM, the TGI (HOP-62 NSCLC) was 9040 nM and the GI50 (MDA-MB-468 breast) was 2230 nM. For the same molecule, the TGI (MDA-MB-468 breast) was 4730 nM, the GI50 (U251 glioblastoma) was 3300 nM and the TGI (U251 glioblastoma) was 12100 nM. It also gave a GI50 (K-562 leukemia) of 1810 nM, a TGI (K-562 leukemia) of 4120 nM and a GI50 (HCC-2998 colon) of 1170 nM. It also gave a TGI (HCC-2998 colon) of 2530 nM, a GI50 (MOLT-4 leukemia) of 1150 nM and a TGI (MOLT-4 leukemia) of 2500 nM. The GI50 (MDA-MB-435 melanoma) was 691 nM, the TGI (MDA-MB-435 melanoma) was 3560 nM and the GI50 (SK-MEL-5 melanoma) was 1320 nM. For the same molecule, the TGI (SK-MEL-5 melanoma) was 4140 nM, the GI50 (M14 melanoma) was 735 nM and the TGI (M14 melanoma) was 5440 nM. The GI50 (NCI/ADR-RES ovarian) was 3280 nM, the TGI (NCI/ADR-RES ovarian) was 11100 nM and the GI50 (LOX IMVI melanoma) was 845 nM. The TGI (LOX IMVI melanoma) was 2070 nM, the GI50 (UACC-257 melanoma) was 2170 nM and the TGI (UACC-257 melanoma) was 9080 nM. For the same molecule, the GI50 (NCI-H322M lung) was 1880 nM, the TGI (NCI-H322M lung) was 11300 nM and the GI50 (HL-60(TB) leukemia) was 85.6 nM. The TGI (HL-60(TB) leukemia) was 1100 nM, the GI50 (UO-31 renal) was 1780 nM and the TGI (UO-31 renal) was 5010 nM. It also gave a GI50 (OVCAR-8 ovarian) of 3290 nM, a TGI (OVCAR-8 ovarian) of 11100 nM and a GI50 (MDA-MB-231 breast) of 2030 nM. For the same molecule, the TGI (MDA-MB-231 breast) was 10400 nM, the GI50 (SN12C renal) was 715 nM and the TGI (SN12C renal) was 2420 nM. It also gave a GI50 (IGROV1 ovarian) of 1340 nM, a TGI (IGROV1 ovarian) of 3260 nM and a GI50 (MCF7 breast) of 244 nM. The TGI (MCF7 breast) was 11600 nM, the GI50 (SF-268 CNS) was 1760 nM and the TGI (SF-268 CNS) was 4770 nM. For the same molecule, the GI50 (CAKI-1 renal) was 1770 nM, the TGI (CAKI-1 renal) was 4290 nM and the GI50 (ACHN renal) was 1510 nM. For the same molecule, the TGI (ACHN renal) was 9760 nM, the GI50 (SK-MEL-28 melanoma) was 1250 nM and the TGI (SK-MEL-28 melanoma) was 6950 nM. The GI50 (SF-295 CNS) was 2440 nM, the TGI (SF-295 CNS) was 7730 nM and the GI50 (KM12 colon) was 16.3 nM. The TGI (KM12 colon) was 121 nM, the GI50 (NCI-H226 lung) was 197 nM and the TGI (NCI-H226 lung) was 1760 nM. It also gave a GI50 (HCT-15 colon) of 1960 nM, a TGI (HCT-15 colon) of 10100 nM and a GI50 (SF-539 CNS) of 1520 nM. It also gave a TGI (SF-539 CNS) of 2920 nM, a GI50 (SW-620 colon) of 1760 nM and a TGI (SW-620 colon) of 11300 nM. For the same molecule, the GI50 (NCI-H522 lung) was 1530 nM, the TGI (NCI-H522 lung) was 3830 nM and the GI50 (EKVX NSCLC) was 663 nM. The TGI (EKVX NSCLC) was 2710 nM, the GI50 (SR leukemia) was 1150 nM and the TGI (SR leukemia) was 2390 nM. The GI50 (HOP-92 NSCLC) was 477 nM, the TGI (HOP-92 NSCLC) was 1920 nM and the GI50 (NCI-H23 lung) was 234 nM. For the same molecule, the TGI (NCI-H23 lung) was 2640 nM, the GI50 (CCRF-CEM leukemia) was 2110 nM and the TGI (CCRF-CEM leukemia) was 3940 nM. It also gave a GI50 (OVCAR-5 ovarian) of 831 nM, a TGI (OVCAR-5 ovarian) of 4470 nM and a GI50 (SNB-75 CNS) of 1840 nM. It also gave a TGI (SNB-75 CNS) of 3590 nM, a GI50 (BT-549 breast) of 1830 nM and a TGI (BT-549 breast) of 4760 nM. For the same molecule, the GI50 (HS 578T breast) was 1500 nM, the TGI (HS 578T breast) was 3070 nM and the GI50 (TK-10 renal) was 1760 nM. For the same molecule, the TGI (TK-10 renal) was 4730 nM, the GI50 (A549 NSCLC) was 1540 nM and the TGI (A549 NSCLC) was 5240 nM. It also gave a GI50 (OVCAR-3 ovarian) of 2880 nM, a TGI (OVCAR-3 ovarian) of 12500 nM and a GI50 (T-47D breast) of 3840 nM. For the same molecule, the TGI (T-47D breast) was 16200 nM, the GI50 (PC-3 prostate) was 3180 nM and the TGI (PC-3 prostate) was 13800 nM. The GI50 (OVCAR-4 ovarian) was 1830 nM, the TGI (OVCAR-4 ovarian) was 6990 nM and the GI50 (HT29 colon) was 203 nM. It also gave a TGI (HT29 colon) of 1640 nM, a GI50 (A498 renal) of 2190 nM and a TGI (A498 renal) of 4840 nM. For the same molecule, the GI50 (COLO 205 colon) was 243 nM, the TGI (COLO 205 colon) was 1030 nM and the GI50 (DU-145 prostate) was 1740 nM. It also gave a TGI (DU-145 prostate) of 4580 nM, a GI50 (SNB-19 CNS) of 2790 nM and a TGI (SNB-19 CNS) of 8230 nM. For the same molecule, the GI50 (SK-OV-3 ovarian) was 1630 nM, the TGI (SK-OV-3 ovarian) was 5780 nM and the GI50 (UACC-62 melanoma) was 2510 nM. It also gave a TGI (UACC-62 melanoma) of 11700 nM, a GI50 (MALME-3M melanoma) of 415 nM and a TGI (MALME-3M melanoma) of 3990 nM. The GI50 (RPMI-8226 leukemia) was 1560 nM and the TGI (RPMI-8226 leukemia) was 3130 nM.
